Data published in patent US9890149B2 (NuBridge BioSciences, priority 2015, dated 2018).

Molecular target: T1, ΔF508 mutant CFTR (Homo sapiens, UniProt P13569, DEL508-508)
T1 construct: expressed in transfected cells; host or cells: Fischer rat thyroid (FRT) cells
Assay: Fluorescence Assay (halide-sensitive YFP, iodide influx) for ΔF508 mutant CFTR activity
Assay type: cell-based
Conditions: FRT cells expressing ΔF508-CFTR and YFP-H148Q/I152L, incubated 27° C. 20-24 h; forskolin (20 μM) and test compounds (20 μM) for 20 min; rate of fluorescence quenching by I−, normalized to forskolin alone

T1 sequence (P13569 with tags, fused parts or gaps DEL508-508): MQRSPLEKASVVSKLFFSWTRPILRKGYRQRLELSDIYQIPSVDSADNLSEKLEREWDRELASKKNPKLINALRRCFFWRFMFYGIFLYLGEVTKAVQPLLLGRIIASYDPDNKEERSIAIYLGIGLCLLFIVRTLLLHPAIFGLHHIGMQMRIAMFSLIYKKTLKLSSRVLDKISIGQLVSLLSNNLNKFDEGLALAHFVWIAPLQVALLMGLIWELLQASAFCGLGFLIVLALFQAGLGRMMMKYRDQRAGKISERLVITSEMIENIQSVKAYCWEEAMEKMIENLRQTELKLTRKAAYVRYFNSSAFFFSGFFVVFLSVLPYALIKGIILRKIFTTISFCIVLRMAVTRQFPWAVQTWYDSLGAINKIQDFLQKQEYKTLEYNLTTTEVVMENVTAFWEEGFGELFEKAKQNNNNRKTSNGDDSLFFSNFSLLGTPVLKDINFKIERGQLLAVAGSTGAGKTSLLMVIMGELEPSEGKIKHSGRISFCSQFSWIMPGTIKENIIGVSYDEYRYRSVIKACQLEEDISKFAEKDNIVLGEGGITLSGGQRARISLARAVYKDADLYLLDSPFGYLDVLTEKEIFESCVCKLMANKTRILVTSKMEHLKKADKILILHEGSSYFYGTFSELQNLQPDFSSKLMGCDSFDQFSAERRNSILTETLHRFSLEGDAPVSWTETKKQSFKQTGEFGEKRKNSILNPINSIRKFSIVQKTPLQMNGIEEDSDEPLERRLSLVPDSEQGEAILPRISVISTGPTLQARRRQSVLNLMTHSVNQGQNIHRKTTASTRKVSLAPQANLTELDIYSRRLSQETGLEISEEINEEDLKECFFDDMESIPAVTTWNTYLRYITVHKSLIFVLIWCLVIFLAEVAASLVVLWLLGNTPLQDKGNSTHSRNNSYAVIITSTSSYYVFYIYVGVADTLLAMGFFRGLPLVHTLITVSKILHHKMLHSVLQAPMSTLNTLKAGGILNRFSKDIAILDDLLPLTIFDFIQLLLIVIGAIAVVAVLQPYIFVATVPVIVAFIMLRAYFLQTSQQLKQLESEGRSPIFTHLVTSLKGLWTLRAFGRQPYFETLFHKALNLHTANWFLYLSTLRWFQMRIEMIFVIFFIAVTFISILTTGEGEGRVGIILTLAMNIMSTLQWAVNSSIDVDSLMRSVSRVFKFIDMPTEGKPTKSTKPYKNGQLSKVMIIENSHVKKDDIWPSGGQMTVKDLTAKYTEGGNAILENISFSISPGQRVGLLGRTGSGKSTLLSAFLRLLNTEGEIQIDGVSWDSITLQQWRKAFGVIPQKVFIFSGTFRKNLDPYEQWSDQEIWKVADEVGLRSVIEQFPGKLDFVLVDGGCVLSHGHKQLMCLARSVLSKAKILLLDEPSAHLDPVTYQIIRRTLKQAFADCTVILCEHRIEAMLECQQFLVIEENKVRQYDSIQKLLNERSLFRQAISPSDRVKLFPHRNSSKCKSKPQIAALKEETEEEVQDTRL

Cl.NCC(CO)COc1sncc1NC(=O)c1nc(-c2c(F)cccc2F)c(C(F)(F)F)cc1N (stereo not drawn) [Example 59, 3-amino-N-(5-(3-amino-2-(hydroxymethyl)propoxy)isothiazol-4-yl)-6-(2,6-difluorophenyl)-5-(trifluoromethyl)picolinamide hydrochloride]
CFTR Activity: 2.3

Cl.NC1CCCC(Oc2sncc2NC(=O)c2ccc(C(F)(F)F)c(-c3c(F)cccc3F)n2)C1 (stereo not drawn) [Example 60, N-(5-((3-aminocyclohexyl)oxy)isothiazol-4-yl)-6-(2,6-difluorophenyl)-5-(trifluoromethyl)picolinamide hydrochloride]
CFTR Activity: 0.1

Cl.Nc1cc(C(F)(F)F)c(-c2c(F)cccc2F)nc1C(=O)Nc1cnsc1OC1CCCC(N)C1 (stereo not drawn) [Example 61, 3-amino-N-(5-((3-aminocyclohexyl)oxy)isothiazol-4-yl)-6-(2,6-difluorophenyl)-5-(trifluoromethyl)picolinamide hydrochloride]
CFTR Activity: 0.4
